Data from patent publication US11926837B2, “Compositions and methods for controlling plant growth” (PLANTARC BIO LTD., priority 2019, dated 2024).

T1: Arabidopsis thaliana HPPD (AtHPPD) (Arabidopsis thaliana, UniProt P93836)
T1 construct: expressed in transfected cells; host or cells: E. coli BL21 (DE3), pET16 vector
T1 sequence (P93836 1-445): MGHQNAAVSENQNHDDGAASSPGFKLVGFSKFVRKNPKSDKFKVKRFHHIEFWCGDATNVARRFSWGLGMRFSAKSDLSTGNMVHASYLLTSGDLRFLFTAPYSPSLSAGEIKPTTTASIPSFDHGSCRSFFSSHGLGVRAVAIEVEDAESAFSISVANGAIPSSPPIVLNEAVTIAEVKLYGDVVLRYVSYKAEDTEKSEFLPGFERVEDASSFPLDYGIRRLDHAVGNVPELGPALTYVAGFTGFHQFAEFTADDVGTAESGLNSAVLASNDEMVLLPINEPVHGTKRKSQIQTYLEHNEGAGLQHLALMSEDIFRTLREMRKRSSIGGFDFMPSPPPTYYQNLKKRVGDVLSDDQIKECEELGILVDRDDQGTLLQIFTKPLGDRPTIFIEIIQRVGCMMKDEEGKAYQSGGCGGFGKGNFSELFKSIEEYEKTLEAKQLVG

B1: AtHPPD: HPPD from Arabidopsis thaliana hppd cDNA (accession no. AF047834) (protein, UniProt P93836 1-445, looked up)
4-hydroxyphenylpyruvate …: MGHQNAAVSENQNHDDGAASSPGFKLVGFSKFVRKNPKSDKFKVKRFHHIEFWCGDATNVARRFSWGLGMRFSAKSDLSTGNMVHASYLLTSGDLRFLFTAPYSPSLSAGEIKPTTTASIPSFDHGSCRSFFSSHGLGVRAVAIEVEDAESAFSISVANGAIPSSPPIVLNEAVTIAEVKLYGDVVLRYVSYKAEDTEKSEFLPGFERVEDASSFPLDYGIRRLDHAVGNVPELGPALTYVAGFTGFHQFAEFTADDVGTAESGLNSAVLASNDEMVLLPINEPVHGTKRKSQIQTYLEHNEGAGLQHLALMSEDIFRTLREMRKRSSIGGFDFMPSPPPTYYQNLKKRVGDVLSDDQIKECEELGILVDRDDQGTLLQIFTKPLGDRPTIFIEIIQRVGCMMKDEEGKAYQSGGCGGFGKGNFSELFKSIEEYEKTLEAKQLVG
B2: GmHPPD: the native G. max HPPD (Accession number: ABQ96868) (protein)
chain: MPIPCNEIQAQAQAQAQPGFKLVGFKNFVRTNPKSDRFQVNRFHHIEFWCTDATNASRRFSWGLGMPIVAKSDLSTGNQIHASYLLRSGDLSFLFSAPYSPSLSAGSSAASSASIPSFDAATCLAFAAKHGFGVRAIALEVADAEAAFSASVAKGAEPASPPVLVDDRTGFAEVRLYGDVVLRYVSYKDAAPQAPHADPSRWFLPGFEAAASSSSFPELDYGIRRLDHAVGNVPELAPAVRYLKGFSGFHEFAEFTAEDVGTSESGLNSVVLANNSETVLLPLNEPVYGTKRKSQIETYLEHNEGAGVQHLALVTHDIFTTLREMRKRSFLGGFEFMPSPPPTYYANLHNRAADVLTVDQIKQCEELGILVDRDDQGTLLQIFTKPVGDRPTIFIXIIQRIGCMVEDEEGKVYQKGACGGFGKGNFSELFKSIEEYEKTLEAKRTA
modifications: not fully specified; X: residue not identified in the source

What was measured:
[1] = tested on: Arabidopsis plants transformed with Trichoderma spp-HPPD gene; test: In-planta screen of plants transformed with fungal HPPD; assay type: in vivo
Method: The hppd coding region was cloned into pPA35H binary vector under the control of the CaMV35S constitutive promoter and HSP terminator and was used to transform Arabidopsis plants using agrobacterium according to the dipping flower method, as essentially described in WO 2018/178975. […] 3-4 days post germination, plants were treated with 0.1% and 0.05% Tembotrione (Laudis (Bayer)). HPPD resistant plants were detected one-week post germination.

[2] = tested on: Arabidopsis control (wt, non-transformed) plants; test: In-planta screen, control (non-transformed, wt) plants; assay type: in vivo
Source text: The hppd coding region was cloned into pPA35H binary vector under the control of the CaMV35S constitutive promoter and HSP terminator and was used to transform Arabidopsis plants using agrobacterium according to the dipping flower method, as essentially described in WO 2018/178975. T1 generation transformed seeds were germinated on Basta selection (Bayer) according to manufacturer instructions. […] HPPD resistant plants were detected one-week post germination.

[3] = tested on: HPPD derived from the novel Trichoderma fungus (TP); test: Bacterial HPPD-activity assay, E. coli BL21 (DE3) transformed with Trichoderma HPPD, brown halo; assay type: cell-based, Trichoderma spp.; conditions: E. coli BL21 (DE3) on agar screen plates, 25° C., 4 days
Method: (§1) E. coli BL21 (DE3) were transformed with the expression vector and monitored for HPPD activity using a colorimetric method as essentially explained in Rocaboy-Faquet. E. et al. (DOI: 10.1007/s00253-014-5793-5) with two minor modifications, namely: 1) The transformed bacteria were inoculated on an agar based medium instead of a liquid medium; 2) The screen was performed at 25° C. for 4 days.
(§2) The screen media was prepared with a concentration gradient of HPPD inhibitors at the indicated concentrations and the transformed bacteria were inoculated on the screening agar plates. HPPD activity was detected by a brown halo resulting from the HPPD-mediated conversion of p-hydroxyphenylpyruvate (HPP) into homogentisate (HGA), which later is oxidized to a melanin-like pigment. Tembotrione resistance of the transformed bacteria was compared to that of plates inoculated with E. coli BL21 (DE3) transformed with either an empty pET16 vector or a pET16 vector transformed with Arabidopsis thaliana hppd cDNA (accession no. AF047834).

[4] = target: T1, Arabidopsis thaliana HPPD (AtHPPD); test: Bacterial HPPD-activity assay, E. coli BL21 (DE3) transformed with Arabidopsis thaliana hppd cDNA; assay type: cell-based; conditions: E. coli BL21 (DE3) on agar plates with concentration gradient of HPPD inhibitors, 25° C., 4 days
Method: as §1, §2

[5] = tested on: Camelina plants; test: In-planta screen of soy HPPD mutants; assay type: in vivo; conditions: T1 Camelina, Laudis (Tembotrione) 0.075% three days post seeding, images 19 days post treatment
Method: T1 generation transformed seeds of Camelina plants with the Soy HPPD (GmHPPD) mutated gene as compared to wt. Plant were treated with Laudis (Tembotrione) 0.075% three days post seeding. EGFP transformed plants were used as control. Images taken 19 days post treatment. The following were tested: • GmHPPD—SEQ ID NO: 118 the native G. max HPPD (Accession number: ABQ96868) • GmHPPD.1=GmHPPD (SEQ ID NO: 118) mutated to substitute its motif 1 with motif 1 of SEQ ID NO: 1—i.e. to include amino acid sequences set forth in SEQ ID NO: 9-10 or 38; • GmHPPD.2=GmHPPD (SEQ ID NO: 118) mutated to substitute its motif 6.2 (SEQ ID NO: 68) first Y with motif 6.2 of SEQ ID NO: 1 (SEQ ID NO: 20)—i.e. to include the mutation Tyr185Phe to include SEQ ID NO: 157; • GmHPPD.3=GmHPPD (SEQ ID NO: 118) mutated to substitute its motif 7.2 (SEQ ID NO: 70) first Y with motif 7.2 of SEQ ID NO: 1 (SEQ ID NO: 22)—i.e. to include the mutation Tyr243Phe; • GmHPPD.4=GmHPPD (SEQ ID NO: 118) mutated to substitute its motif 2.1 (SEQ ID NO: 57) with motif 2.1 of SEQ ID NO: 1 (SEQ ID NO: 11)—i.e. to include the mutation Ala254Trp to include SEQ ID NO: 129; • GmHPPD.5=GmHPPD (SEQ ID NO: 118) mutated to substitute its motif 3.1 with motif 3.1 of SEQ ID NO: 1—i.e. to include the replacement mutations 338-MPSPPP-343 to INVPG.

[6] = tested on: G. max HPPD; test: HPPD-activity screen of soy HPPD mutants in E. coli BL21 (DE3); assay type: cell-based
Source text: A brown halo is indicative of HPPD activity • GmHPPD SEQ ID NO: 118 ([…] […] […] […] […] […] […] AADVLTVDQIKQCEELGILVDRDDQGTLLQIFTKPVGDRPTIFIXIIQRIGC […]), the native G. max HPPD (Accession number: ABQ96868) • GmHPPD.1=GmHPPD (SEQ ID NO: 118) mutated to substitute its motif 1 with motif 1 of SEQ ID NO: 1—i.e. to include amino acid sequences SEQ ID NO: 9-10 or 38; • GmHPPD.2=GmHPPD (SEQ ID NO: 118) mutated to substitute its motif 6.2 (SEQ ID NO: 68) first Y with motif 6.2 of SEQ ID NO: 1 (SEQ ID NO: 20)—i.e. to include the mutation Tyr185Phe to include SEQ ID NO: 157; • GmHPPD.4=GmHPPD (SEQ ID NO: 118) mutated to substitute its motif 2.1 (SEQ ID NO: 57) with motif 2.1 of SEQ ID NO: 1 (SEQ ID NO: 11)—i.e. to include the mutation Ala254Trp to include SEQ ID NO: 129.

[7] = T2 generation, Tembotrione x1=2500 and x0.2=500 μg/ml, Mesotrione x1=50 μg/ml, Topramezon x1=150 and x0.2=30 μg/ml, Isoxaflutole x1=50 μg/ml
[8] = control (wt plants), Tembotrione 2500 and 500 μg/ml, Mesotrione 50 μg/ml, Topramezon 150 and 30 μg/ml, Isoxaflutole 50 μg/ml

Row | Molecule | plant growth in the presence of the herbicide [1, 7] | plant growth in the presence of the herbicide [2, 8] | also measured
1 | CS(=O)(=O)c1cc(C(F)(F)F)ccc1C(=O)c1cnoc1C1CC1 [Isoxaflutole, isoxaflutole] | enabled growth | no plant growth or an acute growth inhibition and leaf bleaching | –
2 | CS(=O)(=O)c1ccc(C(=O)C2C(=O)CCCC2=O)c([N+](=O)[O-])c1 [Mesotrione, mesotrione] | enabled growth | no plant growth or an acute growth inhibition and leaf bleaching | –
3 | Cc1nn(C)c(OCC(=O)c2ccccc2)c1C(=O)c1ccc(Cl)cc1Cl [Pyrazoxyfen, pyrazoxyfen] | – | – | HPPD inhibitor concentration on plates at which HPPD activity (brown halo) was still detected [3]: ≤ 1250 µg/mL
4 | CS(=O)(=O)c1ccc(C(=O)C2C(=O)CCCC2=O)c(Cl)c1COCC(F)(F)F [Tembotrione, tembotrione] | enabled growth | no plant growth or an acute growth inhibition and leaf bleaching | plant growth in the presence of the herbicide ([1]; T1 plants on Basta selection, 0.1% and 0.05% Tembotrione (Laudis) 3-4 days post germination): enabled growth; plant growth in the presence of the herbicide ([2]; control (non-transformed), 0.1% and 0.05% Tembotrione (Laudis)): no plant growth
5 | Cc1c(C(=O)c2cnn(C)c2O)ccc(S(C)(=O)=O)c1C1=NOCC1 [Topramezone, topramezone] | enabled growth | no plant growth or an acute growth inhibition and leaf bleaching | –
6 | B1 | – | – | HPPD activity (brown halo) on HPPD inhibitor plates [4]: poor HPPD activity if at all
7 | B2 | – | – | herbicide tolerance of transformed plants [5]: highly damaged; HPPD enzymatic activity (brown halo) ([6]; 5 μM tembotrione): only minor enzymatic activity; HPPD enzymatic activity (brown halo) ([6]; 10 μM tembotrione): essentially no enzymatic activity
